{
  "source": "patent US8633242B2",
  "about": "“Benzylidene indanones and processes for preparation and use thereof” (Council of Scientific and Industrial Research, priority 2011, dated 2014)",
  "test_system": "Swiss albino mice",
  "settings": "mouse, in vivo; for ALKP / Body weight / Haemoglobin / SGOT / SGPT / Serum creatinine / Serum total cholesterol / Serum triglycerides: po",
  "procedure": "In view of potent anti-cancer activity of compound 8 in in-vitro model, acute oral toxicity of the same was carried out in Swiss albino mice for its further development into drug product. For the study, 30 mice (15 male and 15 female) were taken and divided into five groups comprising 3 male and 3 female mice in each group weighing between 20-25 g. The animals were maintained at 22±5° C. with humidity control and also on an automatic dark and light cycle of 12 hours. The animals were fed with the standard rat feed and provided ad libitum drinking water. Mice of group 1 were kept as control and animals of groups […] were kept as experimental. The animals were acclimatized for 7 days in the experimental environment prior to the actual experimentation. The test compound was suspended by ultrasonication in cremophore EL (20% in distilled water) using traces of ethanol as a co-solvent and was given at 5, 50, 300 and 1000 mg/kg body weight to animals of groups 2, 3, 4 and 5 respectively. Control animals received only vehicle.\nThe animals were checked for mortality and any signs of ill health at hourly interval on the day of administration of drug and there after a daily general case side clinical examination was carried out including changes in skin, mucous membrane, eyes, occurrence of secretion and excretion and also responses like lachrymation, pilo-erection respiratory patterns etc. Also changes in gait. posture and response to handling were also recorded (Allan at al., 2007). In addition to observational study, body weights were recorded and blood and serum samples were collected from all the animals on 7th day after experiment and were analysed for total RBC, WBC, differential leucoyte count haemoglobin percentage and biochemical parameters like total cholesterol, triglycerides, creatinine, SGPT and SGOT activity. The animals were then sacrificed and were necropsed for any gross pathological changes. Weights of vital organs like liver, heart, kidney etc. were recorded (Chanda et al., 2009).",
  "note": "Where two headings read alike, the source gives them in different places.",
  "data": [
    {"smiles": "COc1cc(C2/C(=C/c3ccc4c(c3)OCO4)C(=O)c3cc(OC)c(OC)c(OC)c32)cc(OC)c1OC", "note": "(racemic) [Compound 8, 2-(3,4-Methylenedioxybenzylidine), 3-(3,4,5-trimethoxyphenyl), 4,5,6-trimethoxyindanone]", "values": [
      {"measurement": "observational changes, morbidity and mortality", "setting": "300 mg/kg", "value": "No observational changes, morbidity and mortality"},
      {"measurement": "ALKP", "setting": "5 mg/kg", "value": "82.51 ± 3.04", "unit": "U/L"},
      {"measurement": "Body weight", "setting": "5 mg/kg", "value": "30.38 ± 0.77", "unit": "g"},
      {"measurement": "Haemoglobin", "setting": "5 mg/kg", "value": "11.31 ± 1.14", "unit": "g/dL"},
      {"measurement": "SGOT", "setting": "5 mg/kg", "value": "18.74 ± 1.54", "unit": "U/L"},
      {"measurement": "SGPT", "setting": "5 mg/kg", "value": "6.90 ± 0.17", "unit": "U/L"},
      {"measurement": "Serum creatinine", "setting": "5 mg/kg", "value": "0.53 ± 0.04", "unit": "mg/dL"},
      {"measurement": "Serum total cholesterol", "setting": "5 mg/kg", "value": "109.42 ± 5.46", "unit": "mg/dL"},
      {"measurement": "Serum triglycerides", "setting": "5 mg/kg", "value": "112.69 ± 3.75", "unit": "mg/dL"},
      {"measurement": "ALKP", "setting": "50 mg/kg", "value": "94.24 ± 8.83", "unit": "U/L"},
      {"measurement": "Body weight", "setting": "50 mg/kg", "value": "28.37 ± 1.42", "unit": "g"},
      {"measurement": "Haemoglobin", "setting": "50 mg/kg", "value": "12.93 ± 0.98", "unit": "g/dL"},
      {"measurement": "SGOT", "setting": "50 mg/kg", "value": "20.66 ± 1.15", "unit": "U/L"},
      {"measurement": "SGPT", "setting": "50 mg/kg", "value": "9.77 ± 0.77", "unit": "U/L"},
      {"measurement": "Serum creatinine", "setting": "50 mg/kg", "value": "0.45 ± 0.05", "unit": "mg/dL"},
      {"measurement": "Serum total cholesterol", "setting": "50 mg/kg", "value": "125.69 ± 5.90", "unit": "mg/dL"},
      {"measurement": "Serum triglycerides", "setting": "50 mg/kg", "value": "90.62 ± 8.41", "unit": "mg/dL"},
      {"measurement": "ALKP", "setting": "300 mg/kg", "value": "90.11 ± 5.42", "unit": "U/L"},
      {"measurement": "Body weight", "setting": "300 mg/kg", "value": "29.35 ± 1.63", "unit": "g"},
      {"measurement": "Haemoglobin", "setting": "300 mg/kg", "value": "11.46 ± 0.76", "unit": "g/dL"},
      {"measurement": "SGOT", "setting": "300 mg/kg", "value": "26.55 ± 3.23", "unit": "U/L"},
      {"measurement": "SGPT", "setting": "300 mg/kg", "value": "9.16 ± 1.14", "unit": "U/L"},
      {"measurement": "Serum creatinine", "setting": "300 mg/kg", "value": "0.56 ± 0.07", "unit": "mg/dL"},
      {"measurement": "Serum total cholesterol", "setting": "300 mg/kg", "value": "117.57 ± 3.45", "unit": "mg/dL"},
      {"measurement": "Serum triglycerides", "setting": "300 mg/kg", "value": "113.15 ± 3.65", "unit": "mg/dL"},
      {"measurement": "Body weight", "setting": "1000 mg/kg", "value": "30.69 ± 0.83", "unit": "g"},
      {"measurement": "Haemoglobin", "setting": "1000 mg/kg", "value": "12.21 ± 1.46", "unit": "g/dL"},
      {"measurement": "SGOT", "setting": "1000 mg/kg", "value": "19.38 ± 3.49", "unit": "U/L"},
      {"measurement": "Serum creatinine", "setting": "1000 mg/kg", "value": "0.42 ± 0.09", "unit": "mg/dL"},
      {"measurement": "Serum total cholesterol", "setting": "1000 mg/kg", "value": "118.60 ± 6.07", "unit": "mg/dL"},
      {"measurement": "Serum triglycerides", "setting": "1000 mg/kg", "value": "97.44 ± 6.96", "unit": "mg/dL"}
    ]}
  ]
}
